Results on 3 compounds are retold here after the NIST ThermoML archive (doi:10.1021/acs.jced.7b00440).

For the data set the following is noted: 100 kPa, Liquid; for viscosity: Capillary tube (Ostwald / Ubbelohde) method; for mass density: Vibrating tube method.

± gives the expanded uncertainty stated by the source.

In the case of `CC(C)CO` [2-methyl-1-propanol], the viscosity reads like this: (293.15 K) 4.077 ± 0.079 mPa·s; (298.15 K) 3.394 ± 0.066 mPa·s; (303.15 K) 2.949 ± 0.057 mPa·s; (308.15 K) 2.54 ± 0.049 mPa·s; (313.15 K) 2.208 ± 0.043 mPa·s; (318.15 K) 1.855 ± 0.036 mPa·s. For the same compound, the viscosity by setting is: (323.15 K) 1.621 ± 0.032 mPa·s; (328.15 K) 1.425 ± 0.028 mPa·s; (333.15 K) 1.25 ± 0.024 mPa·s. For the same compound, the mass density came out at 801.98 ± 0.27 kg/m3 (293.15 K); 798.13 ± 0.27 kg/m3 (298.15 K); 794.24 ± 0.27 kg/m3 (303.15 K); 790.29 ± 0.27 kg/m3 (308.15 K); 786.3 ± 0.27 kg/m3 (313.15 K); 782.24 ± 0.27 kg/m3 (318.15 K). For the same compound, the mass density reads like this: (323.15 K) 778.12 ± 0.27 kg/m3; (328.15 K) 773.92 ± 0.27 kg/m3; (333.15 K) 769.65 ± 0.27 kg/m3.
As for `CCCCO` [butan-1-ol], the viscosity turned out to be 2.97 ± 0.056 mPa·s (293.15 K); 2.547 ± 0.048 mPa·s (298.15 K); 2.237 ± 0.042 mPa·s (303.15 K); 1.98 ± 0.038 mPa·s (308.15 K); 1.757 ± 0.033 mPa·s (313.15 K); 1.568 ± 0.03 mPa·s (318.15 K). In addition, the viscosity is, setting by setting: (323.15 K) 1.404 ± 0.027 mPa·s; (328.15 K) 1.255 ± 0.024 mPa·s; (333.15 K) 1.132 ± 0.022 mPa·s. In addition, the mass density (293.15 K) worked out at 809.01 ± 0.2 kg/m3; the mass density (298.15 K) is reported as 805.87 ± 0.2 kg/m3; the mass density (303.15 K) came out at 802.06 ± 0.21 kg/m3; the mass density (308.15 K) came to 798.18 ± 0.21 kg/m3; the mass density (313.15 K) is on record as 794.26 ± 0.21 kg/m3; the mass density (318.15 K) turned out to be 790.3 ± 0.21 kg/m3. For the same compound, the mass density by setting is: (323.15 K) 786.29 ± 0.21 kg/m3; (328.15 K) 782.02 ± 0.21 kg/m3; (333.15 K) 777.81 ± 0.21 kg/m3.
Regarding `CCC(C)O` (centres undefined) [butan-2-ol], the viscosity reads like this: (293.15 K) 3.742 ± 0.071 mPa·s; (298.15 K) 3.093 ± 0.059 mPa·s; (303.15 K) 2.579 ± 0.049 mPa·s; (308.15 K) 2.147 ± 0.041 mPa·s; (313.15 K) 1.826 ± 0.035 mPa·s; (318.15 K) 1.555 ± 0.03 mPa·s. For the same compound, the viscosity (323.15 K) is given as 1.337 ± 0.025 mPa·s, the viscosity (328.15 K) was determined as 1.142 ± 0.022 mPa·s and the viscosity (333.15 K) worked out at 0.992 ± 0.019 mPa·s. Moreover, the mass density reads like this: (293.15 K) 807.17 ± 0.2 kg/m3; (298.15 K) 803.05 ± 0.21 kg/m3; (303.15 K) 798.85 ± 0.21 kg/m3; (308.15 K) 794.55 ± 0.21 kg/m3; (313.15 K) 790.16 ± 0.21 kg/m3; (318.15 K) 785.66 ± 0.21 kg/m3. Also, the mass density is, setting by setting: (323.15 K) 781.05 ± 0.21 kg/m3; (328.15 K) 776.34 ± 0.21 kg/m3; (333.15 K) 771.51 ± 0.21 kg/m3.

For orientation: viscosity means the resistance of a fluid to flow. In general, mass density refers to the mass of a sample divided by its volume.
